From ChEMBL document CHEMBL5113530, “Butyrylation Meets Adipogenesis-Probed by a p300-Catalyzed Acylation-Specific Small Molecule Inhibitor: Implication in Anti-obesity Therapy” (J Med Chem, 2022)
Activity calls are given as the source filed them. The calls are words filed in the database; no cut-off is given here.

Experiments:
[1] = Toxicity in female Sprague-Dawley rat assessed as average food intake at 250 mg/kg, po administered as single dose measured on day 14 (Rvb =15.95 g/day); format: organism-based; details: in vivo, 336 h, time 14 day
3T3-L1 [2] = assay: Cytotoxicity against in mouse 3T3-L1 cells assessed as effect on cellular oxidoreductase activity at 25 uM incubated for 6 days by MTT assay; format: toxicity, cell-based; details: 3t3-l1, 144 h, time 6 day
[3] = target: Histone acetyltransferase p300 (Homo sapiens) (UniProt Q09472); assay: (§1) Inhibition of recombinant full length His-tagged EP300 catalyzed butyrylation (unknown origin) expressed in baculovirus infected Sf21insect cells using Histone H3 as substrate at 25 uM preincubated with compound for 10 mins followed by butyryl-CoA addition and measured after 10 mins by Western blot analysis; details: Sf21, time 20.0 min
[4] = Toxicity in female Sprague-Dawley rat assessed as average water intake measured per day at 1000 mg/kg, po administered as single dose measured on day 7 (Rvb =21 ml/day); format: organism-based; details: in vivo, 168 h, time 7 day
3T3-L1 [5] = assay: Anti-adipogenic activity against mouse 3T3-L1 cells assessed as downregulation of CEBPA mRNA expression at 25 uM measured after 7 days by qRT-PCR analysis; format: functional, cell-based; details: time 7.0 day
[6] = Toxicity in female Sprague-Dawley rat assessed as average food intake at 500 mg/kg, po administered as single dose measured on day 14 (Rvb =15.95 g/day); format: organism-based; details: in vivo, 336 h, time 14 day
3T3-L1 [7] = assay: Anti-adipogenic activity against mouse 3T3-L1 cells assessed as downregulation of ADIPOQ mRNA expression at 25 uM measured after 7 days by qRT-PCR analysis; format: functional, cell-based; details: time 7.0 day
[8] = Toxicity in female Sprague-Dawley rat assessed as average water intake measured per day at 1000 mg/kg, po administered as single dose measured on day 1 (Rvb =25 ml/day); format: organism-based; details: in vivo, 24 h, time 1 day
[9] = Toxicity in male Sprague-Dawley rat assessed as average water intake measured per day at 250 mg/kg, po administered as single dose measured on day 7 (Rvb =30 ml/day); format: organism-based; details: in vivo, 168 h, time 7 day
[10] = Toxicity in male Sprague-Dawley rat assessed as effect on body weight at 500 mg/kg, po administered as single dose measured on day 14 (Rvb =231.13 +/- 18.38 g); format: organism-based; details: in vivo, 336 h, time 14 day
3T3-L1 [11] = assay: Anti-adipogenic activity against mouse 3T3-L1 cells assessed as downregulation of PPARG mRNA expression at 25 uM measured after 7 days by qRT-PCR analysis; format: functional, cell-based; details: time 7.0 day
[12] = Toxicity in female Sprague-Dawley rat assessed as average food intake at 500 mg/kg, po administered as single dose measured on day 7 (Rvb =15.65 g/day); format: organism-based; details: in vivo, 168 h, time 7 day
[13] = target: Histone acetyltransferase p300 (Homo sapiens) (UniProt Q09472); assay: as §1, with “wild-type” for “recombinant full length”, “EP300 catalytic domain” for “EP300”, “Escherichia coli BL21 (DE3)” for “baculovirus infected Sf21insect cells”; details: time 20.0 min
[14] = Toxicity in male Sprague-Dawley rat assessed as average water intake measured per day at 500 mg/kg, po administered as single dose measured on day 14 (Rvb =34 ml/day); format: organism-based; details: in vivo, 336 h, time 14 day
Mus musculus [15] = assay: Anti-obesity activity in db/db mouse assessed as inhibition of Pprag-gene expression at 50 mg/kg, po qd administered for 30 days by qRT-PCR analysis; format: functional, organism-based; details: time 30.0 day
[16] = Toxicity in female Sprague-Dawley rat assessed as average water intake measured per day at 250 mg/kg, po administered as single dose measured on day 1 (Rvb =25 ml/day); format: organism-based; details: in vivo, 24 h, time 1 day
[17] = Mutagenicity in Salmonella typhimurium TA102 assessed as number of revertants measured per plate at 10 to 1000 incubated for 48 hrs in absence of rat liver S9 fraction by plate incorporation assay; format: toxicity; details: salmonella enterica subsp. enterica serovar typhimurium, s9, 48 h, dose 10-1000 µg
[18] = Toxicity in female Sprague-Dawley rat assessed as average water intake measured per day at 500 mg/kg, po administered as single dose measured on day 1 (Rvb =25 ml/day); format: organism-based; details: in vivo, 24 h, time 1 day
3T3-L1 [19] = assay: Anti-adipogenic activity against mouse 3T3-L1 cells assessed as downregulation of SLC2A4 mRNA expression at 25 uM measured after 7 days by qRT-PCR analysis; format: functional, cell-based; details: time 7.0 day
[20] = Toxicity in male Sprague-Dawley rat assessed as effect on body weight at 500 mg/kg, po administered as single dose measured on day 1 (reference value: 174.75 +/- 7.61 g); format: organism-based; details: in vivo, 24 h, time 1 day
[21] = Toxicity in female Sprague-Dawley rat assessed as effect on body weight at 500 mg/kg, po administered as single dose measured on day 14 (Rvb =171.5 +/- 6.65 g); format: organism-based; details: in vivo, 336 h, time 14 day
[22] = Toxicity in female Sprague-Dawley rat assessed as average food intake at 250 mg/kg, po administered as single dose measured on day 1 (Rvb =17.84 g/day); format: organism-based; details: in vivo, 24 h, time 1 day
Mus musculus [23] = assay: Anti-obesity activity in C57BL6/J mouse model of high fat diet-induced obesity assessed as reduction in epididymal fat pad weight at 50 mg/kg; format: functional, organism-based
[24] = Toxicity in female Sprague-Dawley rat assessed as average water intake measured per day at 500 mg/kg, po administered as single dose measured on day 7 (Rvb =21 ml/day); format: organism-based; details: in vivo, 168 h, time 7 day
3T3-L1 [25] = assay: Inhibition of H3K23 butyrylation in mouse 3T3-L1 cells by Immunoblotting analysis; format: functional, cell-based
Mus musculus [26] = assay: Anti-obesity activity in db/db mouse assessed as inhibition of Adipoq-gene expression at 50 mg/kg, po qd administered for 30 days by qRT-PCR analysis; format: functional, organism-based; details: time 30.0 day
Mus musculus [27] = assay: Anti-obesity activity in db/db mouse assessed as inhibition of lep gene expression at 50 mg/kg, po qd administered for 30 days by qRT-PCR analysis; format: functional, organism-based; details: time 30.0 day
[28] = Stability of compound in mouse 3T3-L1 cells measured after 6 days by LC-ESI-MS analysis; format: ADME, cell-based; details: 3t3-l1, 144 h, time 6 day
3T3-L1 [29] = assay: Anti-adipogenic activity against mouse 3T3-L1 cells assessed as upregulation of KDM4C mRNA expression at 25 uM measured after 7 days by qRT-PCR analysis; format: functional, cell-based; details: time 7.0 day
[30] = Toxicity in female Sprague-Dawley rat assessed as average food intake at 250 mg/kg, po administered as single dose measured on day 7 (Rvb =15.65 g/day); format: organism-based; details: in vivo, 168 h, time 7 day
[31] = Toxicity in male Sprague-Dawley rat assessed as effect on body weight at 500 mg/kg, po administered as single dose measured on day 7 (reference value: 217.38 +/- 11.38 g); format: organism-based; details: in vivo, 168 h, time 7 day
[32] = Toxicity in female Sprague-Dawley rat assessed as average food intake at 1000 mg/kg, po administered as single dose measured on day 14 (Rvb =15.95 g/day); format: organism-based; details: in vivo, 336 h, time 14 day
Mus musculus [33] = assay: Anti-obesity activity in C57BL6/J mouse model of high fat diet-induced obesity assessed as daily food consumption measured per day per mouse at 50 mg/kg (reference value: 1.95547 +/- 0.23142 g); format: functional
3T3-L1 [34] = assay: Anti-adipogenic activity against mouse 3T3-L1 cells assessed as downregulation of FASN mRNA expression at 25 uM measured after 7 days by qRT-PCR analysis; format: functional, cell-based; details: time 7.0 day
[35] = Toxicity in male Sprague-Dawley rat assessed as average water intake measured per day at 500 mg/kg, po administered as single dose measured on day 7 (Rvb =30 ml/day); format: organism-based; details: in vivo, 168 h, time 7 day

Histone acetyltransferase p300 (Homo sapiens), sequence (Q09472 whole entry, the tested form may be a part): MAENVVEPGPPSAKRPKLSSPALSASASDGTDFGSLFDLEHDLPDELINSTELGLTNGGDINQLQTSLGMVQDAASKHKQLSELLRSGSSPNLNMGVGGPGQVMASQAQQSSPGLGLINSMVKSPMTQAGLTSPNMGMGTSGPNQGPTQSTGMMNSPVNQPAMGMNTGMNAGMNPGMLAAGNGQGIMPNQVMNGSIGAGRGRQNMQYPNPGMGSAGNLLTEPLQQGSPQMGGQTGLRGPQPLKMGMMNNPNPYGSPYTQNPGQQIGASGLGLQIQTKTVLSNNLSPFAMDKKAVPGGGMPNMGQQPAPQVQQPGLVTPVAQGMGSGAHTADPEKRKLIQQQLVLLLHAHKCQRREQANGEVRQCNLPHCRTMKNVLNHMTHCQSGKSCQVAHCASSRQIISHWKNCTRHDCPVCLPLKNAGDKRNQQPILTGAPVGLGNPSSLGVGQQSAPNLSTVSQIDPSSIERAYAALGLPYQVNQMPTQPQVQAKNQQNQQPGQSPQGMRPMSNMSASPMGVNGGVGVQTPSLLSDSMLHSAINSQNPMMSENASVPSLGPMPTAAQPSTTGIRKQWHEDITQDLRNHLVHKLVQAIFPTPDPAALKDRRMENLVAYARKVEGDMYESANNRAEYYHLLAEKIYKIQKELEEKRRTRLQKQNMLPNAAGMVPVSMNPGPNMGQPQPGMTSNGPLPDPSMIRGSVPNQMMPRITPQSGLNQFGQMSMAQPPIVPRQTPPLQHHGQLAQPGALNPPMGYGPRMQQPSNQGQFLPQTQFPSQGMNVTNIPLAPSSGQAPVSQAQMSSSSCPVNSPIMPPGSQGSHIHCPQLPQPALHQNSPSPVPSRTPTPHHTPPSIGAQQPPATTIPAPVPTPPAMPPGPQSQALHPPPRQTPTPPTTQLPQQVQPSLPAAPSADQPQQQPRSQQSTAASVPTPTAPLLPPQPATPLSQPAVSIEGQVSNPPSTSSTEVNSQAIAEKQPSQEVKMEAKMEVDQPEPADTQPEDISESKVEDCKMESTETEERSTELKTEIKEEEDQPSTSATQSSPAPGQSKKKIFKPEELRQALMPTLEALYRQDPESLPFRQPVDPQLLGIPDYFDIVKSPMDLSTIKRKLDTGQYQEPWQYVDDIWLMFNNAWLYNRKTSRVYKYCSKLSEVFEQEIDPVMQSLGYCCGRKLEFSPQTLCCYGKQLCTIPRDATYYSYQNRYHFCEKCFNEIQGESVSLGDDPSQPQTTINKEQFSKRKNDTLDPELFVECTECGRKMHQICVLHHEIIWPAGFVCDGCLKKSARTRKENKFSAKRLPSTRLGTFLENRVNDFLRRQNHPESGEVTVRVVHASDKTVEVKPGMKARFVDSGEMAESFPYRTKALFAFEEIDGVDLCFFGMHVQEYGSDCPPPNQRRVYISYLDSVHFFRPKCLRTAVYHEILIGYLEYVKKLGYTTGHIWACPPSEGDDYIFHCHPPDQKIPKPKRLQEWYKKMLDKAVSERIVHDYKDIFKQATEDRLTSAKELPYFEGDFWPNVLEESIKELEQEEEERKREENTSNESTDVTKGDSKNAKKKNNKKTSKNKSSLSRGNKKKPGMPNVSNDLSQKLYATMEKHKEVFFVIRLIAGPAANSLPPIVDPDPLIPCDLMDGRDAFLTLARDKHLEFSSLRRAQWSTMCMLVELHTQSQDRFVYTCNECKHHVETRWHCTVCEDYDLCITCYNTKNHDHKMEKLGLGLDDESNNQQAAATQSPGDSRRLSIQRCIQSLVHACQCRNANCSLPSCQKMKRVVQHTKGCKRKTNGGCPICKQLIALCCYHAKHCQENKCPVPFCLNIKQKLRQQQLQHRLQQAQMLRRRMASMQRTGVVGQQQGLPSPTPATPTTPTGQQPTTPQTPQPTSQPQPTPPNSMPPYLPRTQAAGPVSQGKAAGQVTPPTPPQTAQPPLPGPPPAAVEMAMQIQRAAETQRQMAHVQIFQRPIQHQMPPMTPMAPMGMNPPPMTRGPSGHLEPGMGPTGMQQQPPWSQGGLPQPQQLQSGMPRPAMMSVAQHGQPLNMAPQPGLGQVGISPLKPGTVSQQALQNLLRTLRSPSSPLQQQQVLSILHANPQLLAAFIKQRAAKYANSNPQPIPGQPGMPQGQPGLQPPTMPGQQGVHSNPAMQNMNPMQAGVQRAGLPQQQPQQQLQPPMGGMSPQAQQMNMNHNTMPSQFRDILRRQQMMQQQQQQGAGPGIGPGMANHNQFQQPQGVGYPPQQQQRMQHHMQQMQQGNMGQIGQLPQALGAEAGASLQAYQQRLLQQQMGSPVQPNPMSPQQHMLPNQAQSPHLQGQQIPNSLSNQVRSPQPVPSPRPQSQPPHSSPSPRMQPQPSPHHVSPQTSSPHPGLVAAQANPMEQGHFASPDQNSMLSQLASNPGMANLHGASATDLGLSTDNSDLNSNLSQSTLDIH

Structure (SMILES): COc1ccc(C(=O)C2=C3OC(C)(C)[C@@H](CC=C(C)C)C[C@@]34C[C@@H](CC=C(C)C)C(C)(C)[C@](CC=C(C)C)(C2=O)C4=O)cc1OC
- Activity [1]: 16.65 g/day
- Activity (3T3-L1 [2]): Non-Toxic
- inhibition [3]: Active
- Activity [4]: 22 mL
- Activity (3T3-L1 [5]): Active
- Activity [6]: 17.09 g/day
- Activity (3T3-L1 [7]): Active
- Activity [8]: 26 mL
- Activity [9]: 27 mL
- Activity [10]: 243.14 g
- Activity (3T3-L1 [11]): Active
- Activity [12]: 18.13 g/day
- inhibition [13]: Active
- Activity [14]: 40 mL
- Activity (Mus musculus [15]): Active
- Activity [16]: 26 mL
- Activity [17]: Non-Toxic
- Activity [18]: 25 mL
- Activity (3T3-L1 [19]): Active
- Activity [20]: 176.3 g
- Activity [21]: 175.8 g
- Activity [22]: 20 g/day
- Activity (Mus musculus [23]): Active
- Activity [24]: 23 mL
- inhibition (3T3-L1 [25]): Active
- Activity (Mus musculus [26]): Active
- Activity (Mus musculus [27]): Active
- Stability [28]: Stable
- Activity (3T3-L1 [29]): Active
- Activity [30]: 16.32 g/day
- Activity [31]: 229.75 g
- Activity [32]: 16.97 g/day
- Activity (Mus musculus [33]): 2.041 g
- Activity (3T3-L1 [34]): Active
- Activity [35]: 33 mL
